Reference: patent US11466047B2, “Cyclic di-nucleotide compounds as sting agonists” (Merck Sharp & Dohme Corp., priority 2017, dated 2022)
Like-named read-outs stand apart in the source and are kept apart here.

Tests used:
full-length WT STING = full-length WT STING (Homo sapiens (Human), UniProt Q86WV6, H232R); assay: 3H-cGAMP filtration binding assay (WT STING); settings: WT STING membrane
Protocol: The ability of compounds to bind STING is quantified by their ability to compete with tritiated cGAMP ligand for human STING receptor membrane using a radioactive filter-binding assay. The binding assay employs STING receptor obtained from Trichoplusia ni cell membranes (T.ni; Expression Systems, cat #94-002F, overexpressing full-length WT STING and tritiated cGAMP ligand.
The basic WT STING filtration assay protocol is as follows:
16 nM of [^3H] c-GAMP ligand was prepared by diluting into assay buffer, and 50 uL of this working stock was manually added to each well of the assay plate. After ligand addition, 2 uL of either titrated test compound, DMSO control (Sigma #276855), or cold cGAMP control was added to the appropriate wells using a BIOMEK FX. The serially titrated compound was prepared on a Hamilton STARPlus CORE in a 96-well plate (Greiner, #651201) using a 1:3 ten-point dose response format. Following compound addition, a 2.2 ug/ml working concentration of STING membrane (SEQ. ID. No. 3) was prepared by diluting concentrated membrane into assay buffer (1×PBS; Invitrogen #SH30028.02) and douncing 7× using a manual tissue homogenizer (Wheaton, #357546). 148 uL of this prepared membrane was then manually added to each well of a 96-well deep-well polypropylene plate (Fisher Scientific, #12-566-121). Compound, ligand, and membrane then incubated for 60 min at RT before the contents of each assay plate were filtered through a 96-well GF/B filter plate (PerkinElmer, #6005250) using a TOMTEC MACH III Cell Harvester equipped with 20 mM HEPES buffer (Fisher Scientific, #BP299500). The filter plates were then dried at 55° C. for 30 min using a pressurized VWR oven before 30 uL of ULTIMA GOLD F scintillate was added to each well. Tritium levels for each reaction well were then measured using a PerkinElmer TopCount plate reader.
After normalization to controls, the percent activity for each compound concentration was calculated by measuring the amount of remaining radioactivity. The plot of percent activity versus the log of compound concentration was fit with a 4-parameter dose response equation to calculate EC50 values.

THP1 cells = assay: IFN-β secretion in THP1 cell culture (5 h); format: cell-based, human; settings: 30 μM compound, relative to 2′3′-cGAMP at 30 μM; for activation at 30 µM: Homo sapiens, THP-1, 5 h, read-out: % Effect at 30 μM relative to 2′3′-cGAMP
Protocol: The ability of compounds to stimulate the secretion of interferon-beta from THP1 cells was measured using a human IFN-β AlphaLISA kit (Perkin Elmer, Cat. No. AL265F). The basic protocol is as follows:
A Labcyte Echo 550 acoustic dispenser was used to transfer 120 nL of compound dissolved in DMSO into the wells of an empty, sterile 384-well microplate, (Corning, Cat. No. 3712). THP1 cells (American Type Culture Collection, Cat. No. TIB202) previously frozen in Recovery Medium (Life Technologies, Cat. No. 12648-010) were thawed and immediately diluted 10-fold into 37° C. assay medium (RPMI 1640+L-Glutamine & phenol red, Life Technologies, Cat. No. 11875-085; 0.5% heat inactivated fetal bovine serum, Sigma Aldrich, Cat. No. F4135; 1 mM Sodium Pyruvate, Life Technologies, Cat. No. 11360-070; lx non-essential amino acids; Life Technologies, Cat. No. 11140-050). The cell viability and count was ascertained using a Beckman Coulter V-Cell XR cell counter. The cell suspension was centrifuged at 200×g for 5 min at RT. Cells were resuspended to a density of 0.8×10^6/mL in 37° C. assay medium. Subsequent liquid transfers were performed using either a Matrix electronic multichannel pipette or an Agilent Bravo Automated Liquid Handling Platform.
The assay was started by dispensing 40 μL of the previously prepared cell suspension into the wells of the plate containing compounds. After 5 h incubation at 37° C., 5% CO2 in a humidified atmosphere, the plate of cells and compounds was centrifuged at 200×g for 5 min at RT. From each well, 5 μL of supernatant was transferred into corresponding wells of a white 384-well plate (Perkin Elmer, Cat. No. 6005620). To these supernatant-containing wells was added 10 μL of 5× Anti-Analyte Acceptor beads (50 μg/mL of AlphaLISA HiBlock Buffer) and incubated for 30 min at RT while shaking on an orbital plate shaker. To each well was added 10 μL of 5× Biotinylated Antibody Anti-analyte (5 nM in AlphaLISA HiBlock Buffer) and incubated on an orbital plate shaker for 60 min at RT or overnight at 4° C. To each well was added 25 μL of 2×SA-Donor beads (80 μg/mL in AlphaLISA HiBlock Buffer) and incubated for 30-45 min at RT in the dark while shaking on an orbital plate shaker. The plate was then read on a Perkin Elmer Envision (λex=680 nm, λem=570 nm). The percent effect of the AlphaLISA signal at each compound concentration was calculated based on 30 uM cGAMP positive controls and 0.3% DMSO negative controls. The plot of percent effect versus the log of compound concentration was fit with a 4-parameter concentration response equation to calculate EC50 values. The test compounds were tested at concentrations 30000, 10000, 3333, 1111, 370.4, 123.4, 41.2, 13.7, 4.6, and 1.5 nM with 0.3% residual DMSO. The control compound, cGAMP was tested at concentrations 100000, 33333, 11111, 3704, 1235, 412, 137, 46, and 15 nM with 0.3% residual DMSO.
Compounds of the disclosure were evaluated for IFN-β secretion in THP1 cell culture as described above. The following table tabulates the biological data for these compounds as percent activation relative to 2′3′-cGAMP at the 30 μM concentration.

[1] = EC50, competition with tritiated cGAMP ligand
[2] = competition with tritiated cGAMP ligand, read-out: EC50

Chain of full-length WT STING (Q86WV6 whole entry, looked up, stated change not applied): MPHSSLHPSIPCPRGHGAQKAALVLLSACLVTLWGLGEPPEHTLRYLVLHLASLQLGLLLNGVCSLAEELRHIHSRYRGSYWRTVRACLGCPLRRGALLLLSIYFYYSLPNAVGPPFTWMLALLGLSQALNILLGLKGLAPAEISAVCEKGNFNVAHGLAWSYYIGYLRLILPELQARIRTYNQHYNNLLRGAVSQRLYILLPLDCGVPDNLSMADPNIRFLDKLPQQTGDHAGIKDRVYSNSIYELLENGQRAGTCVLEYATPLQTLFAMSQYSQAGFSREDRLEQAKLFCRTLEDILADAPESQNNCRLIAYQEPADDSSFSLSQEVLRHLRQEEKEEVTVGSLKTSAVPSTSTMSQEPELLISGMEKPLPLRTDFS

| Compound | EC50 (full-length WT STING; [1]) | % Effect at 30 μM relative to 2′3′-cGAMP (THP1 cells) | EC50 (full-length WT STING; [2]) | activation at 30 µM (THP1 cells) |
| --- | --- | --- | --- | --- |
| Nc1nc2c(ncn2[C@@H]2O[C@@H]3COP(O)(=S)O[C@H]4C[C@H](n5cnc6c(N)ncnc65)O[C@@H]4COP(=S)(S)O[C@@H]2C3)c(=O)[nH]1 (single isomer, unassigned) [Example 10] | 6 nM | 91% | – | – |
| Nc1nc2c(ncn2[C@@H]2O[C@@H]3COP(=O)(O)O[C@H]4C[C@H](n5cnc6c(N)ncnc65)O[C@@H]4COP(=S)(S)O[C@@H]2C3)c(=O)[nH]1 (stereo partly drawn) [Example 23, 2-amino-9-[(5S,7R,8R,12aR,14R,15aS)-14-(6-amino-9H-purin-9-yl)-2-hydroxy-2-oxido-10-sulfanyl-10-sulfidooctahydro-12H-5,8-methanofuro[3,2-1] [1,3,6,9,11,2,10]pentaoxadiphosphacyclotetradecin-7-yl]-1,9-dihydro-6H-purin-6-one] | – | – | 69 nM | 152% |
| Nc1nc2c(ncn2[C@@H]2O[C@@H]3COP(O)(=S)O[C@H]4[C@H]5OC[C@]4(COP(=S)(S)O[C@@H]2[C@H]3F)O[C@H]5n2cnc3c(N)ncnc32)c(=O)[nH]1 (single isomer, unassigned) [Example 15] | – | – | 79 nM | 357% |
| Nc1nc2c(ncn2[C@@H]2O[C@@H]3COP(=O)(O)O[C@H]4[C@H](F)[C@H](n5cnc6c(N)ncnc65)O[C@@H]4COP(=S)(S)O[C@@H]2[C@@H]3F)c(=O)[nH]1 (stereo partly drawn) [Example 22, 2-amino-9-[(5R,7R,8S,12aR,14R,15S,15aR,16R)-14-(6-amino-9H-purin-9-yl)-15,16-difluoro-2-hydroxy-2-oxido-10-sulfanyl-10-sulfidooctahydro-12H-5,8-methanofuro[3,2-l][1,3,6,9,11,2,10]pentaoxadiphosphacyclotetradecin-7-yl]-1,9-dihydro-6H-purin-6-one] | 517 nM | – | – | 117% |
| Nc1nc2c(ncn2[C@@H]2O[C@@H]3COP(O)(=S)O[C@H]4C[C@H](n5cnc6c(N)ncnc65)O[C@@H]4COP(=S)(S)O[C@@H]2C3)c(=O)[nH]1 (single isomer, unassigned) [Example 11] | 34 nM | 51% | – | – |
| Nc1nc2c(ncn2[C@@H]2O[C@@H]3COP(O)(=S)O[C@H]4C[C@H](n5cnc6c(=O)[nH]cnc65)O[C@@H]4COP(=S)(S)O[C@@H]2C3)c(=O)[nH]1 (stereo partly drawn) [Example 26, 2-amino-9-[(5S,7R,8R,12aR,14R,15aS)-2-hydroxy-14-(6-oxo-1,6-dihydro-9H-purin-9-yl)-10-sulfanyl-2,10-disulfidooctahydro-12H-5,8-methanofuro[3,2-1][1,3,6,9,11,2,10]pentaoxadiphosphacyclotetradecin-7-yl]-1,9-dihydro-6H-purin-6-one] | – | – | 409 nM | 75% |
| Nc1nc2c(ncn2[C@@H]2O[C@@H]3COP(=S)(S)O[C@H]4C[C@H](n5cnc6c(N)ncnc65)O[C@@H]4COP(=O)(O)O[C@@H]2C3)c(=O)[nH]1 (stereo partly drawn) [Example 18, 2-amino-9-[(5S,7R,8R,12aR,14R,15aS)-14-(6-amino-9H-purin-9-yl)-10-hydroxy-10-oxido-2-sulfanyl-2-sulfidooctahydro-12H-5,8-methanofuro[3,2-1][1,3,6,9,11,2,10]pentaoxadiphosphacyclotetradecin-7-yl]-1,9-dihydro-6H-purin-6-one] | – | – | 1 nM | 153% |
| Nc1nc2c(ncn2[C@@H]2O[C@@H]3COP(=S)(S)O[C@H]4[C@H](F)[C@H](n5cnc6c(N)ncnc65)O[C@@H]4COP(=O)(O)O[C@@H]2[C@@H]3F)c(=O)[nH]1 (stereo partly drawn) [Example 19, 2-amino-9-[(5R,7R,8S,12aR,14R,15S, 15aR,16R)-14-(6-amino-9H-purin-9-yl)-15,16-difluoro-10-hydroxy-10-oxido-2-sulfanyl-2-sulfidooctahydro-12H-5,8-methanofuro[3,2-1][1,3,6,9,11,2,10]pentaoxadiphosphacyclotetradecin-7-yl]-1,9-dihydro-6H-purin-6-one] | – | – | 1 nM | 250% |
| Nc1nc2c(ncn2[C@@H]2O[C@@H]3COP(=S)(S)O[C@H]4C[C@H](n5cnc6c(N)ncnc65)O[C@@H]4COP(O)(=S)O[C@@H]2C3)c(=O)[nH]1 (single isomer, unassigned) [Example 4] | – | 146% | < 1 nM | – |
| Nc1nc2c(ncn2[C@@H]2O[C@@H]3COP(O)(=S)O[C@H]4[C@H](F)[C@H](n5cnc6c(N)ncnc65)O[C@@H]4COP(=S)(S)O[C@@H]2[C@@H]3F)c(=O)[nH]1 (single isomer, unassigned) [Example 13] | – | 95% | 223 nM | – |
| Nc1nc2c(ncn2[C@@H]2O[C@@H]3COP(O)(=S)O[C@H]4[C@H](F)[C@H](n5cnc6c(N)ncnc65)O[C@@H]4COP(=S)(S)O[C@@H]2[C@@H]3F)c(=O)[nH]1 (single isomer, unassigned) [Example 12] | – | 116% | 171 nM | – |
| Nc1nc2c(ncn2[C@@H]2O[C@@H]3COP(O)(=S)O[C@H]4C[C@H](n5ccc6c(N)ncnc65)O[C@@H]4COP(=S)(S)O[C@@H]2C3)c(=O)[nH]1 (single isomer, unassigned) [Example 14] | – | – | 244 nM | 422% |
| Nc1nc2c(ncn2[C@@H]2O[C@@H]3COP(=S)(S)O[C@H]4[C@H](F)[C@H](n5cnc6c(=O)[nH]cnc65)O[C@@H]4COP(O)(=S)O[C@@H]2[C@@H]3F)c(=O)[nH]1 (stereo partly drawn) [Example 27, 2-amino-9-[(5R,7R,8S,12aR,14R,15S,15aR,16R)-15,16-difluoro-10-hydroxy-14-(6-oxo-1,6-dihydro-9H-purin-9-yl)-2-sulfanyl-2,10-disulfidooctahydro-12H-5,8-methanofuro[3,2-1][1,3,6,9,11,2,10]pentaoxadiphosphacyclotetradecin-7-yl]-1,9-dihydro-6H-purin-6-one] | – | – | – | 164% |
| Nc1nc2c(ncn2[C@@H]2O[C@@H]3COP(=S)(S)O[C@H]4C[C@H](n5cnc6c(=O)[nH]cnc65)O[C@@H]4COP(O)(=S)O[C@@H]2C3)c(=O)[nH]1 (single isomer, unassigned) [Example 24] | – | 168% | 19 nM | – |
